Assay results from PMC4610172, “5-Arylaminouracil Derivatives as Potential Dual-Action Agents” (Acta Naturae, 2015).

Columns and labels:
[1] = tested on: Mycobacterium tuberculosis; parameters: method as in PMID 26061192; settings: cited from earlier work
human tonsillar tissue = assay: Toxicity ex vivo in human tonsillar tissue (flow cytometry of cell phenotypes); assay type: cell-based; settings: 12 days culture
Method: The cytotoxicity of compounds (6), (7), and (19) was determined in human tonsillar tissues. A total of 27 tissue blocks were incubated with compound (19) (20 μg/mL) or with compound (6) or (7) ( 5 μg/mL) for each experimental point. Tissue blocks were cultured for 12 days. Then, the cells were isolated from the control and treated and stained with combinations of fluorescence- labeled antibodies against CD3-QD605, CD4- QD655, CD8-QD705, CD25-APC, CD38-PE, HLA-DRAPC- Cy7, CXCR4-Brilliant violet 421, CCR5-PR-Cy5 CD45RA-FITC, and CCR7-PE-Cy7 (Caltag Laboratories; Biolegend). We determined the numbers of cells of different phenotypes in isolated suspensions using flow cytometry as previously described. The volume of an analyzed suspension was controlled by means of Trucount beads (Becton Dickinson); the number of counted cells was normalized to the weight of the tissue fragments used for cell isolation.

MT-4 cell line = assay: Cytotoxicity in vitro in MT-4 cells (propidium iodide uptake, automatic cell counter); assay type: cell-based; settings: highest concentration tested
Method: We tested the compounds for potential cytotoxicity in the MT-4 cell line using an automatic cell counter (ChemoMetec). The number of live and dead cells was counted in the control cultures, and the cultures were treated with compound (6), (7), or (19). Compounds (6) and (7) were tested at concentrations of 0.136–33 μM (0.035–9 μg/mL), and compound (19) was tested at concentrations of 0.272–66 μM (0.119–28 μg/mL).
We discriminated live from dead cells by evaluating propidium iodide uptake according to the manufacturer’s instructions. We collected and analyzed data using the Nucleoview software (version 1.0,ChemoMetec).

[2] = target: T1, HIV-1 reverse transcriptase (p66/p51 heterodimer) (Human immunodeficiency virus type 1 group M subtype B, UniProt P04585); assay: Inhibition of recombinant HIV-1 reverse transcriptase (Dixon's method, noncompetitive); assay type: biochemical; settings: Dixon's method for noncompetitive inhibitors; read-out: Ki (inhibition constant)
T1 construct: recombinant HIV-1 reverse transcriptase (p66/p51 heterodimer); made in house
Method: Isolation of recombinant HIV-1 reverse transcriptase (p66/p51 heterodimer) and determination of its activity were performed as described earlier. The inhibition constant (Ki), calculated according to Dixon’s method for noncompetitive inhibitors, was used as a quantitative measure of the inhibitory activity of the compounds. Nevirapine, a first-generation HIV NNRTI, was used as a control.

For `Cc1cccc(Nc2c[nH]c(=O)[nH]c2=O)c1` [Compound 2], the “Concentration of total inhibition of mycobacterium growth” value [1] is listed as 5 to 40 µg/mL.

In the case of `Cc1ccc(Nc2c[nH]c(=O)[nH]c2=O)cc1` [Compound 3], the “Concentration of total inhibition of mycobacterium growth” value [1] is given as 5 to 40 µg/mL.

In the case of `CCCCc1ccc(Nc2c[nH]c(=O)[nH]c2=O)cc1` [Compound 6], the “Concentration of total inhibition of mycobacterium growth” value [1] is listed as 5 to 40 µg/mL, the “Cytotoxicity on different cell types in the tissue (T, B, CD4+, CD8+ and CD4+ subgroups)” value (from here on “Cytotoxicity on different cell types”) (human tonsillar tissue; 5 μg/mL) is listed as “lack of significant death rates” and the “Maximum concentration at which neither cytotoxic nor cytostatic effect was observed” value (“Maximum concentration” for short) (MT-4 cell line) is listed as no less than 33 µM.

For `CCCCOc1ccc(Nc2c[nH]c(=O)[nH]c2=O)cc1` [Compound 7], the “Concentration of total inhibition of mycobacterium growth” value [1] is given as 5 to 40 µg/mL, the “Cytotoxicity on different cell types” value (human tonsillar tissue; 5 μg/mL) is given as “lack of significant death rates” and the “Maximum concentration” value (MT-4 cell line) is given as no less than 33 µM.

In the case of `CCCCc1ccc(Nc2n[nH]c(=O)[nH]c2=O)cc1` [Compound 10], the “Concentration of total inhibition of mycobacterium growth” value [1] is given as 5 to 40 µg/mL.

In the case of `O=c1[nH]c(=O)n(C2C=CC(O)C2)cc1Nc1ccc(Oc2ccccc2)cc1` (stereo not drawn) [Compound 15], the Ki [2] is reported as 119 µM.

For `CCCCOc1ccc(Nc2cn(C3C=CC(O)C3)c(=O)n(C3C=CC(O)C3)c2=O)cc1` (stereo not drawn) [Compound 19], the “Concentration of total inhibition of mycobacterium growth” value [1] is listed as 5 to 40 µg/mL, the “Cytotoxicity on different cell types” value (human tonsillar tissue; 20 μg/mL) is listed as “lack of significant death rates” and the “Maximum concentration” value (MT-4 cell line) is listed as no less than 66 µM.

In the case of `O=c1c(Nc2ccccc2)cn(C2C=CC(O)C2)c(=O)n1Cc1ccccc1` (stereo not drawn) [Compound 21, 1-(4’-Hydroxy-2’-cyclopenten-1’-yl)-3-benzyl-5-(phenylamino) uracil], the Ki [2] is reported as greater than 100 µM.

With `Cc1ccc(Nc2cn(C3C=CC(O)C3)c(=O)n(Cc3ccccc3)c2=O)cc1` (stereo not drawn) [Compound 22, 1-(4’-Hydroxy-2’-cyclopenten-1’-yl)-3-benzyl-5-(p-methylphenylamino) uracil] the Ki [2] was 60 µM.
